Reference: patent publication US6740304B2, “Receptor binding conjugates” (priority 1999, dated 2004)

Biological target: T1, folate binding protein (FBP) (Bos taurus, UniProt P02702)
T1 construct: purchased Sigma
Test: Binding assay on immobilised folate binding protein (Scatchard type plot)
Details: Scatchard type plot (FIG. 1), for the conjugate assuming at least one binding-reactive folic acid per HIgG
Excerpt: Immobilised folate binding protein (FBP) was used to investigate the binding characteristics of the folic acid conjugates. FBP (Sigma) with a binding capacity of […] folic acid per milligram protein was immobilised on high protein binding 96 well EIA/RIA assay plates (Costar Corning Inc. N.Y., USA)
FBP was labelled with ^125I by the Iodogen method and the labelled protein was isolated by eluting the reaction mixture on a PD-10 column. Purified ^125I-FBP in concentrations ranging form […] in PBS were added in to the 96 well assay plates and incubated on a rotating rack at 4° C. overnight. […] The immobilised quantities of the various concentrations of quadruplicates of ^125I FBP was determined as the ratio of L3/L1+L2 after measuring the radioactivity of the respective samples by liquid scintillation counting.
Wells were incubated with a solution of FBP in PBS and washed three times with PBS after removal of the incubation mixture. […] The specifically bound fraction of folic acid was determined by a similar method as described for ^125I-FBP, correcting for the faction of ^3H-FA retained in the wells that were preincubated with folic acid. […]
The specifically bound ^3H-FA was plotted against the concentration of ^3H-FA in a Scatchard type plot (FIG. 1). […] The following values were determined from the binding assay: […]

T1 sequence (P02702 20-234): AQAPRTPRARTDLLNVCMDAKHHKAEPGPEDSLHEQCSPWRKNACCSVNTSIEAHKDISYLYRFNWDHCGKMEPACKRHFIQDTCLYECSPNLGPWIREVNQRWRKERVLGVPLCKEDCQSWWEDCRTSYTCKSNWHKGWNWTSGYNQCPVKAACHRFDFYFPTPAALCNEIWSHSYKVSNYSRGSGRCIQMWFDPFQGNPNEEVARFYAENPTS

^3H-Folic acid [^3H-FA]
Ka: 2×10^8
